# Target: LdGSK-3 (Leishmania donovani, UniProt A6N857)
# Test: Inhibition of LdGSK-3 with Kinase Glo
# Format: biochemical
# Conditions: Table S2; 10 µM
# Description: Assessment of inhibition of LdGSK-3 with Kinase Glo^TM
# The reaction was allowed to proceed for 30 min at 30 °C, then it was incubated at room temperature for another 10 min after addition of Kinase Glo reagents (Promega, Ref. V6712). ATP consumption by LdGSK-3 was measured indirectly through end-point luminescence measurement of each well in a Varioskan Flash microplate reader (Thermo).
# Sequence of LdGSK-3 (A6N857 entry or part of it): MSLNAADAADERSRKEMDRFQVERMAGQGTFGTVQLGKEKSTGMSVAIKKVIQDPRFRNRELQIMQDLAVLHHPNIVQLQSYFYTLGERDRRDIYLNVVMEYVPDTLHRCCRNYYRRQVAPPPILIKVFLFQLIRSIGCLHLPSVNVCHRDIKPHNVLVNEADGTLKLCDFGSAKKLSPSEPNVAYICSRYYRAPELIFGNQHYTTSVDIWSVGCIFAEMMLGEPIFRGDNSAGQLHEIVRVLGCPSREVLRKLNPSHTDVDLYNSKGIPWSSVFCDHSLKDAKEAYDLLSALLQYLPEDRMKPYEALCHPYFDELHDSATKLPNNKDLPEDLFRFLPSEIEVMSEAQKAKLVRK
row,Structure (SMILES),% inhibition @ 10µM (initial screening on LdGSK3) [%]
1,CN(CCOc1ccc(Cl)cc1)Cc1nc(N)nc(N(C)C)n1 [Compound 44],-2.45±1.00
2,CCc1nn(-c2ncc(F)c(NC(C)C)n2)c(N)c1C1CCCCC1 [Compound 41],7.05±1.35
3,COc1ccc(-c2cnc(NC(=O)c3ccc(F)cc3)n2C)cc1 [Compound 88],2.00±1.95
4,CCN(CC)c1nc(Nc2ccncc2)nc2ccccc12 [Compound 36],7.10±1.90
5,O=C(Cc1ccc2c(c1)CCC2)Nc1n[nH]c(-c2ccccn2)n1 [Compound 123],12.15±3.90
6,Cc1cc(C)n(-c2nc(NC(C)C)nc(NC(C)(C)C)n2)n1 [Compound 158],7.85±3.95
7,O=C(Nc1ccc(C(F)(F)F)cc1)Nc1cccc([N+](=O)[O-])c1 [Compound 185],1.70±0.75
8,COCc1cnc2c(c1SCc1c(F)cccc1Cl)c(=O)n(C)c(=O)n2C [Compound 148],9.60±3.10
9,O=C(CN(Cc1ccccn1)Cc1ccccn1)NC1Cc2ccccc2C1.O=C(O)C(F)(F)F [Compound 58],3.75±2.40
10,Cc1ccc2onc(Nc3ccnc(Nc4cccc(S(C)(=O)=O)c4)n3)c2c1.O=C(O)C(F)(F)F [Compound 74],10.00±0.75
11,COc1cnc2ccc(=O)n(CCN3CCC(NC/C=C/c4cc(F)ccc4F)CC3)c2c1 [Compound 84],3.55±2.20
12,O=C(CCCNC(=O)c1ccc(Cl)cc1)Nc1nc(-c2ccccn2)cs1 [Compound 98],8.50±1.10
13,CCS(=O)(=O)c1cccc(C(=O)Nc2nc(-c3ccccn3)cs2)c1 [Compound 165],4.70±0.85
14,COCCn1c(-c2ccccc2)cnc1NCc1ccccc1OC.O=C(O)C(=O)O [Compound 174],6.00±1.50
15,COc1ccc(-c2cnc(NC(=O)c3cc(-c4ccccn4)n[nH]3)n2C)cc1 [Compound 90],6.40±2.45
16,O=C(Nc1nc(-c2ccccn2)cs1)C1CCc2ccccc2C1 (stereo not drawn) [Compound 54],0.10±1.10
17,Cc1ccc(Nc2nc(N)nc(CNC(c3nc4ccccc4[nH]3)C(C)C)n2)cc1 (stereo not drawn) [Compound 79],6.40±1.30
18,c1ccc(-c2nc(NCc3ccco3)c3ccccc3n2)nc1 [Compound 87],-0.05±0.95
19,O=C(CN(Cc1ccccn1)Cc1ccccn1)NCc1ccc2c(c1)OCO2.O=C(O)C(F)(F)F [Compound 193],2.65±4.15
20,CC(c1ccc2c(c1)CCCC2)N(C)c1ncc2c(N)nc(N)nc2n1 (stereo not drawn) [Compound 62],12.10±2.40
21,CC(C)(C)Nc1nc(Nc2ccc3c(c2)CS(=O)(=O)C3)nc2[nH]ccc12 [Compound 103],25.85±1.25
22,c1ccc2sc(Nc3nc4ncccc4[nH]3)nc2c1 [Compound 86],6.55±2.70

row,Structure (SMILES),% inhibition @ 10µM (initial screening on LdGSK3) [%]
1,COc1ccc(C2C3CCCCC3(O)CCN2CC(=O)Nc2ccc(Cl)cc2Cl)cc1 (stereo not drawn) [Compound 194],0.90±4.25
2,Oc1c(-c2n[nH]c(Cc3ccc(Cl)cc3)n2)ncc2cccnc12 [Compound 52],5.05±2.35
3,CCOc1cc(NCCCN2CCN(C)CC2)c2ncccc2c1.Cl.Cl.Cl [Compound 112],7.50±0.65
4,Cc1cc(N2CCc3ccccc3C2)nc(Nc2ccc(S(=O)(=O)N3CCOCC3)cc2)n1.Cl [Compound 73],-3.05±0.35
5,Oc1c(-c2n[nH]c(Cc3ccc(F)cc3)n2)ncc2cccnc12 [Compound 102],4.05±3.10
6,CCNc1cc(-c2ccccn2)nc(Nc2ccc(OC)cc2)n1 [Compound 45],-2.50±5.50
7,O=C(Nc1nc(-c2ccccn2)cs1)c1ccc(S(=O)(=O)N2CCCCC2)cc1 [Compound 116],7.05±1.35
8,COc1ccc(C(=O)[C@H]2C[C@@H]2CN(Cc2ccccn2)Cc2ccccn2)cc1 [Compound 107],-4.05±3.20
9,Cc1cc(C)cc(NS(=O)(=O)c2cc(-c3cc(C)[nH]n3)ccc2C)c1 [Compound 51],5.95±1.25
10,CC(=O)Nc1ccc(-c2csc(NC(=O)c3ccc([N+](=O)[O-])s3)n2)cc1 [Compound 141],8.55±0.55
11,CNc1nc(C)nc(N2CCc3cc(C(=O)NCc4ccc(-c5ccn[nH]5)cc4Cl)ccc32)n1.O=C(O)C(F)(F)F [Compound 25],-13.55±3.90
12,CN(C)c1ccc(N)cc1CN(CC1CCCO1)S(C)(=O)=O (stereo not drawn) [Compound 136],13.95±3.25
13,Cn1c(CC(=O)NNC(=O)c2ccc3ccccc3n2)nc2ccccc21 [Compound 80],7.95±1.65
14,Oc1c(-c2n[nH]c(CCc3ccccc3)n2)ncc2cccnc12 [Compound 66],0.90±0.90
15,COc1cc(Cl)c(C)cc1NC(=O)c1ccc([N+](=O)[O-])s1 [Compound 176],8.55±1.75
16,Br.Nc1nccc(-c2csc(Nc3ccc(Cl)cc3)n2)n1 [Compound 101],16.40±2.40
17,COc1ccc(-c2cnc(C)o2)cc1S(=O)(=O)Nc1ccc(C)cc1C [Compound 160],12.60±3.50
18,N#CN1CC[C@@H](NC(=O)Nc2ccccc2Oc2ccccc2)C1 [Compound 72],7.40±4.30
19,CCCc1cc(C(=O)Nc2ncc(-c3cccc(Br)c3)n2C)n[nH]1 [Compound 159],8.80±2.70
20,COc1cc(OC)cc(C(NS(=O)(=O)c2ccc(Cl)c(C(F)(F)F)c2)c2nccn2C)c1 (stereo not drawn) [Compound 139],15.95±1.70
21,CCN(CC)c1ccc(S(=O)(=O)N(CC)CC)c2nonc12 [Compound 207],8.90±5.85
22,COc1ccc(-c2csc(NC(=O)c3ccc([N+](=O)[O-])s3)n2)cc1 [Compound 201],18.65±3.35

row,Structure (SMILES),% inhibition @ 10µM (initial screening on LdGSK3) [%]
1,CC(C)c1sc(Cl)nc1C(=O)NCCc1nc(C(=O)Nc2ccc3c(c2)OCO3)cs1 [Compound 60],0.20±2.80
2,COc1ccc2ncc(F)c(CCN3CC[C@@H](NC(=O)c4cc5c(s4)CCC5)[C@@H](O)C3)c2n1.Cl [Compound 173],8.60±2.90
3,Nc1cc(-c2ccc3ncnc(N4CCOCC4)c3c2)cnc1N [Compound 55],0.55±3.00
4,CC(C)COC(=O)Nc1ccc(N2CCC(CNS(=O)(=O)c3ccccc3)CC2)c(F)c1 [Compound 46],4.95±4.45
5,CCc1cc(C(=O)Nc2nccn2-c2ccccc2)cs1 [Compound 93],-2.35±1.95
6,O=C(Nc1nc2ccccc2[nH]1)c1c(O)c2cccc3c2n(c1=O)CC3 [Compound 155],7.50±1.00
7,O=C(CN1CCN(c2ccccn2)CC1)Nc1cc(S(=O)(=O)N2CCCCCC2)ccc1Cl [Compound 208],10.20±3.25
8,COc1cc(C2SCC(=O)Nc3c2c(C)nn3-c2nc3ccccc3s2)cc(OC)c1O (stereo not drawn) [Compound 179],29.35±2.80
9,COc1ccc(S(=O)(=O)Nc2ccc(C(=O)Nc3nc(-c4ccccn4)cs3)cc2)cc1 [Compound 175],16.65±1.70
10,O=C(Nc1n[nH]c(-c2ccccn2)n1)C1CC1c1ccccc1 (stereo not drawn) [Compound 76],5.70±0.50
11,COCc1cc(Nc2cccc(Cl)c2)nc(-c2ccccn2)n1 [Compound 39],9.00±3.05
12,Cc1cc(NC(=O)c2ccc([N+](=O)[O-])s2)ccc1Br [Compound 186],3.65±2.60
13,CCCc1cc(N)nc(-c2cc(CCC)cc(N)n2)c1 [Compound 33],-0.35±3.85
14,O=C(CN1CCN(S(=O)(=O)c2cccc([N+](=O)[O-])c2)CC1)Nc1ccc(Oc2ccccc2)cc1 [Compound 152],-2.95±1.70
15,COc1cccc(CN(C)Cc2nc(N)c3c(C)c(C)sc3n2)c1 [Compound 81],6.35±3.00
16,O=C(CSc1nnc(-c2ccc3c(c2)OCO3)o1)N(Cc1ccco1)CC(F)(F)F [Compound 184],53.23±3.29
17,N#Cc1cccc(Nc2nccc(N3CCC(NS(=O)(=O)c4cccc(C#N)c4)CC3)n2)c1.O=C(O)C(F)(F)F [Compound 100],37.05±1.50
18,Cl.c1ccc(CNc2cccc3ccncc23)cc1 [Compound 126],17.10±1.10
19,CC1CCCN(S(=O)(=O)c2ccc(C(=O)Nc3nc(-c4ccccn4)cs3)cc2)C1 (stereo not drawn) [Compound 202],6.50±2.15
20,CCc1ccc2nc(NC(=O)c3cc(N4CCOCC4)ccn3)sc2c1 [Compound 118],22.80±3.55
21,CCNc1cc(-c2ccccn2)nc(Nc2ccccc2)n1 [Compound 38],7.10±1.40

# Same assay, conditions: assayed at 10 µM
row,Structure (SMILES),percentage of inhibition of LdGSK-3
1,O=C(CSc1nnc(-c2ccc3c(c2)OCO3)o1)N(Cc1ccco1)CC(F)(F)F [Compound 184],higher than 50%
